Tests used:
[1] = target: Cyclin-dependent kinase 2/cyclin A (Homo sapiens, UniProt P24941); assay: Inhibition of CDK2/cyclin A (unknown origin) using […] incubated for 40 mins in presence of ATP by Kinase-Glo assay; format: protein-complex assay
[2] = tested on: HCT-116; assay: Induction of apoptosis in human HCT-116 cells assessed as late apoptotic cells at 0.2 uM incubated for 24 hrs by PI staining based flow cytometry (reference value: 1.11 %); format: functional
[3] = tested on: HeLa; assay: Induction of apoptosis in human HeLa cells assessed as early apoptotic cells at 1.8 uM incubated for 24 hrs by PI staining based flow cytometry (reference value: 0.8 %); format: functional
[4] = AUC (0 to infinity) in Sprague-Dawley rat at 2 mg/kg, iv measured for 36 hrs by MRM analysis; format: ADME, organism-based; conditions: in vivo
[5] = target: Cyclin-dependent kinase 2/cyclin A (Homo sapiens) (UniProt P24941+P20248+P78396); assay: Inhibition of CDK2/cyclin A (unknown origin) using […] at 1 uM incubated for 40 mins in presence of ATP by Kinase-Glo assay relative to control; format: protein-complex assay
[6] = tested on: MDA-MB-231; assay: Antiproliferative activity against human MDA-MB-231 cells assessed as cell growth inhibition incubated for 48 hrs by MTT assay; format: functional, cell-based; conditions: MDA-MB-231, 48 h
[7] = tested on: HeLa; assay: Induction of apoptosis in human HeLa cells assessed as viable cells at 1.8 uM incubated for 24 hrs by PI staining based flow cytometry (reference value: 68.9 %); format: functional; conditions: read-out: Activity
[8] = tested on: HeLa; assay: Induction of cell cycle arrest at G2/M phase in human HeLa cells assessed as decrease in cyclin B1 level incubated for 48 hrs by Western blot analysis; format: functional, cell-based; conditions: dose <= 3.6 µM
[9] = tested on: HCT-116; assay: Induction of apoptosis in human HCT-116 cells assessed as total apoptotic cells at 0.8 uM incubated for 24 hrs by PI staining based flow cytometry (reference value: 1.30 %); format: functional
[10] = MRT (0 to t) in Sprague-Dawley rat at 10 mg/kg, po measured for 36 hrs by MRM analysis; format: ADME, organism-based; conditions: in vivo
[11] = tested on: HeLa; assay: Induction of cell cycle arrest in human HeLa cells assessed as accumulation at G1/G0 phase at 3.6 uM incubated for 24 hrs by PI staining based flow cytometry (reference value: 57.63 +/- 1.7 %); format: functional
[12] = tested on: HCT-116; assay: Induction of apoptosis in human HCT-116 cells assessed as necrotic cells at 0.2 uM incubated for 24 hrs by PI staining based flow cytometry (reference value: 18.9 %); format: functional
[13] = tested on: HCT-116; assay: Induction of apoptosis in human HCT-116 cells assessed as necrotic cells at 0.4 uM incubated for 24 hrs by PI staining based flow cytometry (reference value: 18.9 %); format: functional
[14] = Clearance in Sprague-Dawley rat at 10 mg/kg, po measured for 36 hrs by MRM analysis; format: ADME, organism-based; conditions: in vivo
[15] = tested on: HeLa; assay: Induction of cell cycle arrest in human HeLa cells assessed as accumulation at G1/G0 phase at 1.8 uM incubated for 24 hrs by PI staining based flow cytometry (reference value: 57.63 +/- 1.7 %); format: functional
[16] = AUC (0 to infinity) in Sprague-Dawley rat at 10 mg/kg, po measured for 36 hrs by MRM analysis; format: ADME, organism-based; conditions: in vivo
[17] = tested on: A2780; assay: Antiproliferative activity against human A2780 cells assessed as cell growth inhibition incubated for 48 hrs by MTT assay; format: functional, cell-based; conditions: A2780, 48 h
[18] = Toxicity in Balb/c-nu nude mouse xenografted with human HCT-116 cells assessed as toxicity in heart at 35 to 70 mg/kg/day, po treated for 30 days by H and E staining based analysis; format: organism-based; conditions: in vivo, 720 h, dose 35-70 mg/kg/day, time 30 day
[19] = tested on: C6; assay: Antitumor activity against rat C6 cells allografted in Sprague-Dawley rat at 70 mg/kg/day, po treated for 2 weeks relative to control; format: functional; conditions: C6, 336 h, read-out: TGI
[20] = tested on: HCT-116; assay: Induction of cell cycle arrest at G2/M phase in human HCT-116 cells assessed as decrease in cyclin B1 level at 0.4 uM by Western blot analysis; format: functional, cell-based; conditions: time <= 48.0 hrs
[21] = tested on: HCT-116; assay: Induction of cell cycle arrest at G2/M phase in human HCT-116 cells assessed as decrease in p-Cdc2 level incubated for 48 hrs by Western blot analysis; format: functional, cell-based; conditions: dose <= 0.8 µM
[22] = target: CDK9/cyclin T1 (Homo sapiens) (UniProt O60563+P50750); assay: Inhibition of CDK9/cyclin T (unknown origin) using […] at 1 uM incubated for 40 mins in presence of ATP by Kinase-Glo assay relative to control; format: protein-complex assay
[23] = tested on: HeLa; assay: Induction of cell cycle arrest at G2/M phase in human HeLa cells assessed as decrease in p-Cdc2 level at 1.8 uM by Western blot analysis; format: functional, cell-based; conditions: time <= 48.0 hrs
[24] = tested on: HCT-116; assay: Induction of cell cycle arrest in human HCT-116 cells assessed as accumulation at S phase at 0.2 uM incubated for 24 hrs by PI staining based flow cytometry (reference value: 20.82 +/- 1.24 %); format: functional
[25] = tested on: HeLa; assay: Induction of apoptosis in human HeLa cells assessed as late apoptotic cells at 3.6 uM incubated for 24 hrs by PI staining based flow cytometry (reference value: 3.85 %); format: functional
[26] = tested on: HCT-116; assay: Induction of cell cycle arrest at G2/M phase in human HCT-116 cells assessed as decrease in p-Cdc2 level at 0.4 uM by Western blot analysis; format: functional, cell-based; conditions: time <= 48.0 hrs
[27] = Toxicity in Sprague-Dawley rat allografted with rat C6 cells assessed as obvious signs of toxicity at 70 mg/kg/day, po treated for 2 weeks; format: organism-based; conditions: in vivo, 336 h
[28] = Selectivity index, ratio of IC50 for CDK1/cyclin B (unknown origin) using […] to IC50 for CDK2/cyclin A (unknown origin) using […]
[29] = Half life in Sprague-Dawley rat at 2 mg/kg, iv measured for 36 hrs by MRM analysis; format: ADME, organism-based; conditions: in vivo
[30] = tested on: HCT-116; assay: Induction of cell cycle arrest in human HCT-116 cells assessed as accumulation at G2/M phase at 0.4 uM incubated for 24 hrs by PI staining based flow cytometry (reference value: 20.6 +/- 3.38 %); format: functional
[31] = tested on: HCT-116; assay: Induction of cell cycle arrest in human HCT-116 cells assessed as accumulation at sub-G1 phase at 0.2 uM incubated for 24 hrs by PI staining based flow cytometry (reference value: 2.45 +/- 0.49 %); format: functional
[32] = tested on: HCT-116; assay: Induction of apoptosis in human HCT-116 cells assessed as viable cells at 0.4 uM incubated for 24 hrs by PI staining based flow cytometry (reference value: 79.4 %); format: functional; conditions: read-out: Activity
[33] = Clearance in Sprague-Dawley rat at 2 mg/kg, iv measured for 36 hrs by MRM analysis; format: ADME, organism-based; conditions: in vivo
[34] = tested on: HCT-116; assay: Induction of apoptosis in human HCT-116 cells assessed as early apoptotic cells at 0.4 uM incubated for 24 hrs by PI staining based flow cytometry (reference value: 0.19 %); format: functional
[35] = Toxicity in Balb/c-nu nude mouse xenografted with human HCT-116 cells assessed as body weight loss at 35 to 70 mg/kg/day, po treated for 30 days; format: organism-based; conditions: in vivo, 720 h, dose 35-70 mg/kg/day, time 30 day

- IC50 [1]: 4 nM
- AUC(0-inf) [4]: 33.7 ng·h/mL
- inhibition [5]: 99.5%
- IC50 [6]: 928 nM
- MRT last at 36 h [10]: 6.5 h
- CL/F [14]: 1180 mL/min/kg
- AUC(0-inf) [16]: 146 ng·h/mL
- IC50 [17]: 22200 nM
- inhibition [22]: 99%
- Ratio IC50 [28]: 13
- half-life [29]: 4.5 h
- CL [33]: 1130 mL/min/kg
SMILES: Cc1cnc(Nc2ccc(S(N)(=O)=O)cc2)nc1Nc1nccs1
- Activity [2]: 31.2%
- Activity [3]: 62.6%
- viability at 1.8 µM [7]: 11.3%
- Activity [8]: Dose-dependent-effect
- Activity [9]: 43.2%
- Activity [11]: 39.16%
- Activity [12]: 3.6%
- Activity [13]: 4.8%
- Activity [15]: 50.55%
- Activity [18]: Non-toxic
- inhibition in vivo at 70 mg/kg/day [19]: 86%
- Activity [20]: Time-dependent-effect
- Activity [21]: Dose-dependent-effect
- Activity [23]: Time-dependent-effect
- Activity [24]: 22.83%
- Activity [25]: 27.3%
- Activity [26]: Time-dependent-effect
- Activity [27]: Non-toxic
- Activity [30]: 33.27%
- Activity [31]: 0.56%
- viability at 0.4 µM [32]: 54.4%
- Activity [34]: 17.9%
- Activity [35]: Non-toxic

— ChEMBL document CHEMBL6096697, “Structure-Guided Discovery of Novel N4-(Substituted Thiazol-2-yl)-N2-(4-Substituted phenyl)pyrimidine-2,4-Diamines as Potent CDK2 and CDK9 Dual Inhibitors with High Oral Bioavailability” (J Med Chem, 2025)
